Data: ChEMBL document CHEMBL3044579, “Modified benzoxazinones in the system Oryza sativa-Echinochloa crus-galli: an approach to the development of biorational herbicide models” (J Agric Food Chem, 2008)
pIC50: −log10 of the molar value.

What was measured:
[1] = Selectivity index, ratio of IC50 for Oryza sativa L. seeds to IC50 for Echinochloa crus-galli L. seeds
Oryza sativa = test: Phytotoxic activity against Oryza sativa (rice) seeds assessed as inhibition of root growth at 25 degC measured after 7 days by crop selectivity assay; assay type: organism-based; details: L., 168 h
Echinochloa crus-galli [2] = test: Herbicidal activity against Echinochloa crus-galli (barnyard grass) seeds assessed as inhibition of root growth at 25 degC measured after 5 days; assay type: functional, organism-based; details: 120 h
[3] = Phytotoxic activity against Oryza sativa (rice) seeds assessed as inhibition of root growth at 48 uM at 25 degC measured after 7 days by crop selectivity assay; assay type: organism-based, L.; details: read-out: GI
Echinochloa crus-galli [4] = test: Herbicidal activity against Echinochloa crus-galli (barnyard grass) seeds assessed as inhibition of root growth at 48 uM at 25 degC measured after 5 days; assay type: functional; details: 120 h, read-out: GI
Echinochloa crus-galli [5] = test: Ratio of propanil IC50 to compound IC50 for Echinochloa crus-galli (barnyard grass) seeds measured after 5 days; assay type: functional

Compound	Ratio IC50 [1]	pIC50 (Oryza sativa)	pIC50 (Echinochloa crus-galli [2])	also measured
O=C1COc2ccccc2N1O	0.6	3.83	3.63	–
CCCCC1Oc2ccccc2N(O)C1=O [2-Butyl-D-DIBOA]	2.21	3.38	3.72	–
CCOC(=O)C1(C)Oc2ccccc2N(O)C1=O [2-Ethoxycarbonyl-2-methyl-D-DIBOA]	4.42	2.54	3.18	–
CCOC(=O)C1Oc2ccccc2N(O)C1=O [2-Ethoxycarbonyl-D-DIBOA]	5.03	2.84	3.54	–
CCC1Oc2ccccc2N(O)C1=O [2-Ethyl-D-DIBOA]	8.35	3.49	4.41	inhibition at 168 h, 48 µM [3]: 20%; inhibition of growth at 48 µM (Echinochloa crus-galli [4]): 50%; Ratio IC50 (Echinochloa crus-galli [5]): 3
CCCCCCC1Oc2ccccc2N(O)C1=O [2-Hexyl-D-DIBOA]	1.77	2.01	2.25	–
CC1Oc2ccccc2N(O)C1=O [2-Methyl-D-DIBOA]	1.62	3.32	3.53	–
O=C1C(c2ccccc2)Oc2ccccc2N1O [2-Phenyl-D-DIBOA]	2.96	3.22	3.69	–
CCCC1Oc2ccccc2N(O)C1=O [2-Propyl-D-DIBOA]	2.05	3.48	3.79	–
CC(=O)ON1C(=O)COc2ccccc21 [ABOA]	–	–	2.14	–
CCCC(=O)ON1C(=O)COc2ccccc21 [BU-D-DIBOA]	–	–	2.61	–
CCCCCCCCCC(=O)ON1C(=O)COc2ccccc21 [DEC-D-DIBOA]	–	–	3.97	–
CCCCCCC(=O)ON1C(=O)COc2ccccc21 [HEPT-D-DIBOA]	–	–	3.27	–
CCCCCC(=O)ON1C(=O)COc2ccccc21 [HEX-D-DIBOA]	–	–	2.92	–
CCCCCCCCCCCC(=O)ON1C(=O)COc2ccccc21 [LAU-DIBOA]	–	–	3.77	–
CCCCCCCCCCCCCC(=O)ON1C(=O)COc2ccccc21 [MIR-D-DIBOA]	–	–	3.69	–
CCCCCCCCC(=O)ON1C(=O)COc2ccccc21 [NON-D-DIBOA]	–	–	2.84	–
CCCCCCCC(=O)ON1C(=O)COc2ccccc21 [OCT-D-DIBOA]	–	–	3.35	–
CCC(=O)ON1C(=O)COc2ccccc21 [PR-D-DIBOA]	–	–	2.96	–
CCC(=O)Nc1ccc(Cl)c(Cl)c1 [PROPANIL]	–	–	3.94	–
CCCCCCCCCCCCC(=O)ON1C(=O)COc2ccccc21 [TRIDEC-D-DIBOA]	–	–	3.44	–
CCCCCCCCCCC(=O)ON1C(=O)COc2ccccc21 [UNDEC-D-DIBOA]	–	–	3.37	–
CCCCC(=O)ON1C(=O)COc2ccccc21 [VAL-D-DIBOA]	–	–	2.94	–
